Measured values taken from patent publication US12680102B2, “miRNAS for reducing ventricle enlargement” (St. Jude Children's Research Hospital, Inc., priority 2019, dated 2026).

How the values were obtained:
Drd1 = biological target: T1, Drd1 (Mus musculus, UniProt Q61616); experiment: Ex vivo ciliary beating frequency (CBF) in brain slices, Drd1 agonist/antagonist bath-applied; format: cell-based; settings: SKF81297 10 μM bath-applied, slices from 4- to 5-month-old WT mice, vs vehicle (DMSO)
T1 construct: coronal brain sections (300-μm) were collected in L-15 Leibovitz media; from tissue; host or cells: acute coronal mouse brain slices (300 µm); ciliated ependymal cells of the lateral ventricle wall; WT and Dgcr8+/- mice
Description: Ex Vivo Ciliary Beating Frequency Measurements. For ex vivo measurement of CBF, coronal brain sections (300-μm) were collected in L-15 Leibovitz media (Thermo Fisher Scientific) and placed in 37° C., 95%/5% O2/CO2 chamber. Image sequences of CBF were acquired by linescan analysis using an LD C-Apochromat 40× objective water-immersion lens (1.1 NA) in LSM780 confocal microscope (Zeiss AxioObserver). Slices were scanned through a line perpendicular to the axis of the cilia in the Xt mode along this line with an acquisition rate of 529 frames/second (512×1 frame size, 1.89-ms scan time, 5,000 cycles). Transmitted DIC and fluorescence emitted by GFP or Alexa Fluor 488 were collected with a 488- to 568-nm bandpass filter. Fluorescence excitation and transmitted illumination were provided by a 488-nm argon gas laser. The Drd1 agonist (SKF81297, 10 μM; Tocris, Minneapolis, MN) and antagonist (SCH23390, 10 μM; Tocris) were bath-applied once per slice. Five minutes after the agonist or antagonist was applied, the CBF was measured.

[1] = tested on: luciferase reporter encoding miRNA sponge; experiment: Luciferase assay validating miRNA sponges in Neuro 2a cells; format: cell-based, mouse; settings: pGIPZ vector encoding the miRNA vs control pGIPZ
Text: FIGS. 13A-13B. Validation of the miRNA Sponges, Related to FIGS. 6A-6H. (FIG. 13A) Luciferase activity measured in Neuro 2a cells transfected with luciferase reporter vector alone, luciferase reporter vector encoding miR-382-3p sponges (two-tailed Student's t-test; t4=1.62, p=0.18) containing two (t4=23.00, *p<0.001), four (t4=24.35, *p<0.001), or six (t4=9.17, *p<0.001) miRNA-binding sites or scrambled sites (t4=2.36, p=0.08) in the presence of control pGIPZ vector or pGIPZ vector encoding miR-382-3p. Based on these experiments, the miR-382-3p sponge with six seed sites was chosen for in vivo experiments. (FIG. 13B) Luciferase activity in Neuro2a cells transfected with luciferase reporter vector alone, luciferase reporter vector encoding miR-674-3p sponges (t4=14.13, *p<0.001) containing two (t4=14.25, *p<0.001), four (t4=80.70, *p<0.001), or six miRNA-binding sites (t4=26.67, *p<0.001), or scrambled (t4=1.11, p=0.33) sites in the presence of control pGIPZ vector or pGIPZ vector encoding miR-674-3p. Data are shown as the mean±S.E.M.
Generation of miRNA Sponge Constructs. The miR-382-3p and miR-674-3p sponges were generated as described previously (Chun et al., 2017). […]

T1 sequence (Q61616 whole entry): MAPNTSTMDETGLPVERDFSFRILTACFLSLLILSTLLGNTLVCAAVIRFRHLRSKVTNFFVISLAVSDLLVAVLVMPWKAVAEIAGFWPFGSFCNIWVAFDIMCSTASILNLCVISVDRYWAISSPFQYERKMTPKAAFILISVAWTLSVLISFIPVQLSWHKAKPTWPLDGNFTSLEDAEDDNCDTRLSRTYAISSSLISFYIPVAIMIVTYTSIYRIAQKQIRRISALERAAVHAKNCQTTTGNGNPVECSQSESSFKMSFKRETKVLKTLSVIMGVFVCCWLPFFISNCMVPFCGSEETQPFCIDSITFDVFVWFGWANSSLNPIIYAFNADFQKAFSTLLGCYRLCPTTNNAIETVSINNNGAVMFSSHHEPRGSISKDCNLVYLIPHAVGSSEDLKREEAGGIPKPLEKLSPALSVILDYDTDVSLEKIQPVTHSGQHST

Compound | ependymal CBF (Drd1) | inhibition of reporters containing the sponge sequence (luciferase activity) [1]
Oc1cc2c(c(Cl)c1O)CCNCC2c1ccccc1 (centres unmarked) [SKF81297] | slowed ependymal CBF compared to vehicle treatment | –
miR-674-3p: mature mouse miRNA CACAGCUCCCAUCUCAGAACAA (SEQ ID NO: 3); in FIG. 13 expressed from pGIPZ vector (listed as Mus musculus) | – | effectively inhibited reporters containing the sponge sequence in vitro
